Laboratory results reported in PubChem BioAssay (NCI).
“And” between values parts separate entries of the source, which are not always exact repeats. Identical values can stand only once.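 Step 1: Grow cells in 96-well plates. Step 2: Expose to compound for 48 hours at 5 concentrations. Step 3: Interpolate endpoints linearly; if unreached, use highest concentration. GI50: concentration for 50% inhibition of growth. The concentration for full growth arrest is given as TGI.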

Key:
Test in all cases: inhibition of tumour cell growth, NCI panel, 48 h
[1] = test system: A549 NSCLC
[2] = test system: HCT-15 colon
[3] = test system: HL-60(TB) leukemia
[4] = test system: HT29 colon
[5] = test system: NCI-H226 lung
[6] = test system: RXF 393 renal
[7] = test system: SF-295 CNS
[8] = test system: SNB-75 CNS
[9] = test system: SW-620 colon
[10] = test system: UACC-62 melanoma

Row | Compound | GI50 [1] | TGI [1] | GI50 [2] | TGI [2] | GI50 [3] | TGI [3] | GI50 [4] | TGI [4] | GI50 [5] | TGI [5] | GI50 [6] | TGI [6] | GI50 [7] | TGI [7] | GI50 [8] | TGI [8] | GI50 [9] | TGI [9] | GI50 [10] | TGI [10]
1 | CN1CCN(c2ccc(Nc3nc(N)c(C(=O)c4ccc5c(c4)OCCO5)s3)cc2)CC1 | 4300 nM | 15.7 µM | 4080 nM | > 25 µM | 4620 nM | 11.6 µM | 2680 nM | 11.7 µM | 2710 nM | 11.8 µM | 1710 nM | 5.71 µM | 3650 nM | 10 µM | 2280 nM | 6 µM | 3630 nM | > 17.7 µM | 4190 nM | 9.35 µM
2 | Cc1nc(CN2CCCCC2)c(O)c(=O)[nH]1 |  | > 100 µM |  | > 100 µM |  | > 100 µM |  | > 100 µM |  | > 100 µM |  | > 100 µM |  | > 100 µM |  | > 100 µM |  | > 100 µM |  | > 100 µM
3 | Nc1ncnc2c1c(-c1cccc(OCc3ccccc3)c1)cn2C1CC(CN2CCC2)C1 (stereo not given) | 1010 nM and 2910 nM | 7.55 µM and > 10 µM | 1930 nM and 2390 nM | 12.6 µM and > 10 µM | 112 nM and 96.9 nM | 2.08 µM and 2.04 µM | 57.5 nM and 173 nM | 1.84 µM and 2.05 µM | 2030 nM and 2710 nM | 16 µM and > 10 µM | 1710 nM and 2000 nM | 4.27 µM and 7.26 µM | 1890 nM and 2360 nM | 3.93 µM and 5.63 µM | 1700 nM and 2290 nM | 4.86 µM and 8.46 µM | 1290 nM and 1560 nM | 6.47 µM and > 10 µM | 1740 nM and 1500 nM | 3.58 µM and 3.33 µM
4 | COc1cc(O)c2c(c1)C(=O)C=C(Cl)C2=O |  | > 100 µM |  | > 100 µM |  | > 100 µM |  | > 100 µM |  | > 100 µM |  | > 100 µM |  | > 100 µM |  | > 100 µM |  | > 100 µM |  | > 100 µM
5 | O=[N+]([O-])/C=C/c1cc2ccccc2[nH]1 |  | 42.7 µM |  | 53.6 µM |  | 24.3 µM |  | 35.5 µM |  | 37.7 µM |  | 26.6 µM |  | 43.9 µM |  | 28.6 µM |  | 34.5 µM |  | 33.7 µM
6 | Cc1ccccc1C(=O)Oc1ccc(O)cc1 |  | > 100 µM |  | > 100 µM |  | > 100 µM |  | > 100 µM |  | > 100 µM |  | > 100 µM |  | > 100 µM |  | > 100 µM |  | > 100 µM |  | > 100 µM
7 | CC(=O)O[C@H]1CCC2[C@@H]3CCC4=C(O)C(=O)C(C#N)C[C@]4(C)C3CC[C@@]21C (stereo not given in full) |  | > 100 µM |  | > 100 µM |  | 85.3 µM |  | > 100 µM |  | > 100 µM |  | > 100 µM |  | > 100 µM |  | 72.1 µM |  | > 100 µM |  | > 100 µM
8 | CCOC(=O)C(=O)Nc1ccc(Cl)cc1C |  | > 100 µM |  | > 100 µM |  | > 100 µM |  | > 100 µM |  | > 100 µM |  | > 100 µM |  | > 100 µM |  | > 100 µM |  | > 100 µM |  | > 100 µM
9 | O=C(Nc1cccc(Cc2cccc(NC(=O)c3ccccc3)c2)c1)c1ccccc1 |  | > 100 µM |  | > 100 µM |  | > 100 µM |  | > 100 µM |  | > 100 µM |  | 46.6 µM |  | 70.2 µM |  | 27.5 µM |  | > 100 µM |  | > 100 µM
